Data published in ChEMBL document CHEMBL1828590 (J Med Chem, 2011).

Key:
[1] = test system: HCT-116; assay: Antitumor activity against human HCT116 cells xenografted in nude BALB/c mouse assessed as tumor growth inhibition at 200 mg/kg, po qd for 21 days measured on day 15; assay type: functional; settings: read-out: TGI
[2] = test system: COLO 205; assay: Antiproliferative activity against human COLO205 cells after 96 hrs by celltiter 96 assay; assay type: functional, cell-based; settings: COLO 205, 96 h
[3] = test system: A2780; assay: Antiproliferative activity against human A2780 cells after 96 hrs by celltiter 96 assay; assay type: functional, cell-based; settings: A2780, 96 h
[4] = test system: HCT-116; assay: Antiproliferative activity against human HCT116 cells after 96 hrs by celltiter 96 assay; assay type: functional, cell-based; settings: HCT-116, 96 h
[5] = test system: PC-3; assay: Antiproliferative activity against human PC3 cells after 96 hrs by celltiter 96 assay; assay type: functional, cell-based; settings: PC-3, 96 h
[6] = target: Histone deacetylase 4 (Homo sapiens, UniProt P56524)
Description: Competitive inhibition of HDAC4 using KI-104 as substrate by fluorescence assay

[7] = target: T1, Protein deacetylase HDAC6 (Homo sapiens, UniProt Q9UBN7)
T1 sequence (Q9UBN7 whole entry): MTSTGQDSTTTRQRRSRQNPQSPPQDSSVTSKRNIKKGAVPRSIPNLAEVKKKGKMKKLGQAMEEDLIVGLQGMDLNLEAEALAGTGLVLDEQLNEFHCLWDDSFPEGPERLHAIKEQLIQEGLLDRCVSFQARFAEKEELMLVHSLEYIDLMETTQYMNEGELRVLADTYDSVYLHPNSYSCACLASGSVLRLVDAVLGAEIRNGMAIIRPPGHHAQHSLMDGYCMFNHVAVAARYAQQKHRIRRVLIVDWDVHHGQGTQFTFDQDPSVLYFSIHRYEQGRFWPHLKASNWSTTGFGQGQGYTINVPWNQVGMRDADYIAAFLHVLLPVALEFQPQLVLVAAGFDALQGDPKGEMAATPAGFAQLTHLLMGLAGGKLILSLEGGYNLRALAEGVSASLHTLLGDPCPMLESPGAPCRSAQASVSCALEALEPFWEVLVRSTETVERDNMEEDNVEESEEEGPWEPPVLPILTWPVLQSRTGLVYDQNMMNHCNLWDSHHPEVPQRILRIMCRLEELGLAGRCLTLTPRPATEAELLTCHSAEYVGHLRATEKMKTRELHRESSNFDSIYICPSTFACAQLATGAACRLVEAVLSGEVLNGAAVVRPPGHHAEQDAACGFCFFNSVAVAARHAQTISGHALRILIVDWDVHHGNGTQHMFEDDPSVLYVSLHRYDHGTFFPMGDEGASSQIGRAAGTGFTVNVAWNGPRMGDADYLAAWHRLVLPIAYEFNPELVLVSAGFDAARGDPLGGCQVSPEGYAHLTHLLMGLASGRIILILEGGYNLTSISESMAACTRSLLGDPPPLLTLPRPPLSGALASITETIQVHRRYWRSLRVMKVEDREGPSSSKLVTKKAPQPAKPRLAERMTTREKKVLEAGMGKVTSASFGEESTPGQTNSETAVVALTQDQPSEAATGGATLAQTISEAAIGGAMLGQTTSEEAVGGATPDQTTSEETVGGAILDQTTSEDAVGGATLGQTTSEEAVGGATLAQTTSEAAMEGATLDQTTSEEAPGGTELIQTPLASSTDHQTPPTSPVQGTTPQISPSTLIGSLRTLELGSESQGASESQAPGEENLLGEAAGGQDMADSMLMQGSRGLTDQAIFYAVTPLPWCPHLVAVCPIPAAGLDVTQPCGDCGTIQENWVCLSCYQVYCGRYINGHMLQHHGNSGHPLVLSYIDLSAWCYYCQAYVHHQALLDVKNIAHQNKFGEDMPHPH
Description: Competitive inhibition of HDAC6 using KI-104 as substrate by fluorescence assay

[8] = target: T2, Polyamine deacetylase HDAC10 (Homo sapiens, UniProt Q969S8)
T2 sequence (Q969S8 whole entry): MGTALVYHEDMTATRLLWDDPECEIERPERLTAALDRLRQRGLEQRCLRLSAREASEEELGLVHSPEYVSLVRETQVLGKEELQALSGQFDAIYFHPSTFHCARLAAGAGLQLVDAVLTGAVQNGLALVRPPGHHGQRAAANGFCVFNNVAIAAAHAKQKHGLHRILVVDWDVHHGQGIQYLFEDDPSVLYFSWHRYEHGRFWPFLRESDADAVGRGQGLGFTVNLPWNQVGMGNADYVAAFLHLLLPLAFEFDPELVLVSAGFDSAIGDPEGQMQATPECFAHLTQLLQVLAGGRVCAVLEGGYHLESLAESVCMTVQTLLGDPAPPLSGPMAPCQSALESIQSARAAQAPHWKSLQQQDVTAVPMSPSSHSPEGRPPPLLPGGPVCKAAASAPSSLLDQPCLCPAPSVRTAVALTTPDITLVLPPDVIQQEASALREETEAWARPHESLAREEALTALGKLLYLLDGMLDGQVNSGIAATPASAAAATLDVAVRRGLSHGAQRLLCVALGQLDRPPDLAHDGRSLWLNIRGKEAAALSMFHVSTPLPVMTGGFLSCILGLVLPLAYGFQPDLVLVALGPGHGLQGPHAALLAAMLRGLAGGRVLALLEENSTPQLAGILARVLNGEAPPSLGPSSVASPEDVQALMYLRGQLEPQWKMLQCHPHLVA
Description: Competitive inhibition of HDAC10 using KI-104 as substrate by fluorescence assay

[9] = Oral bioavailability in nude BALB/c mouse at 50 mg/kg; assay type: ADME, organism-based; settings: in vivo
[10] = test system: Mus musculus; assay: Toxicity in athymic nu/nu Harlan mouse xenografted with human HCT116 cells assessed as body weight loss at 200 mg/kg, po QD for 7 days measured on day 5; assay type: organism-based, HCT-116; design: dose 200 mg/kg, route oral; settings: in vivo, 168 h
[11] = test system: Mus musculus; assay: Toxicity in athymic nu/nu Harlan mouse xenografted with human HCT116 cells assessed as mouse survival at 50 mg/kg, po QD for 21 days measured on day 22; assay type: organism-based, HCT-116; design: dose 50 mg/kg, route oral; settings: in vivo, 504 h
[12] = test system: Mus musculus; assay: Toxicity in athymic nu/nu Harlan mouse xenografted with human HCT116 cells assessed as mouse survival at 100 mg/kg, po QD for 21 days measured on day 22; assay type: organism-based, HCT-116; design: dose 100 mg/kg, route oral; settings: in vivo, 504 h
[13] = test system: Mus musculus; assay: Toxicity in athymic nu/nu Harlan mouse xenografted with human HCT116 cells assessed as mouse survival at 200 mg/kg, po QD for 21 days measured on day 22; assay type: organism-based, HCT-116; design: dose 200 mg/kg, route oral; settings: in vivo, 504 h
[14] = test system: HCT-116; assay: Antitumor activity against human HCT116 cells xenografted in athymic nu/nu Harlan mouse assessed as tumor growth inhibition at 50 mg/kg, po qd for 21 days measured on day 22; assay type: functional; settings: read-out: TGI
[15] = test system: HCT-116; assay: Antitumor activity against human HCT116 cells xenografted in athymic nu/nu Harlan mouse assessed as tumor growth inhibition at 100 mg/kg, po qd for 21 days measured on day 22; assay type: functional; settings: read-out: TGI
[16] = test system: HCT-116; assay: Antitumor activity against human HCT116 cells xenografted in athymic nu/nu Harlan mouse assessed as tumor growth inhibition at 200 mg/kg, po qd for 21 days measured on day 22; assay type: functional; settings: read-out: TGI
[17] = test system: HCT-116; assay: Antitumor activity against human HCT116 cells xenografted in athymic nude nu/nu CD1 mouse assessed as tumor growth inhibition at 40 mg/kg, ip qd for 7 days measured on day 10; assay type: functional; settings: HCT-116, ip, route intraperitoneal, read-out: TGI
[18] = test system: HCT-116; assay: Antitumor activity against human HCT116 cells xenografted in nude BALB/c mouse assessed as tumor growth inhibition at 50 mg/kg, po qd for 21 days measured on day 18; assay type: functional; settings: read-out: TGI
[19] = test system: HCT-116; assay: Antitumor activity against human HCT116 cells xenografted in nude BALB/c mouse assessed as tumor growth inhibition at 50 mg/kg, po qd for 21 days measured on day 15; assay type: functional; settings: read-out: TGI
[20] = test system: Mus musculus; assay: Toxicity in nude BALB/c mouse xenografted with human HCT116 cells assessed as body weight loss at 50 mg/kg, po QD for 21 days measured on day 12; assay type: organism-based, HCT-116; design: dose 50 mg/kg, route oral; settings: in vivo, 504 h
[21] = test system: Mus musculus; assay: Toxicity in nude BALB/c mouse xenografted with human HCT116 cells assessed as mouse survival at 50 mg/kg, po QD for 21 days measured on day 22; assay type: organism-based, HCT-116; design: dose 50 mg/kg, route oral; settings: in vivo, 504 h
[22] = test system: HCT-116; assay: Antitumor activity against human HCT116 cells xenografted in athymic nu/nu Harlan mouse assessed as tumor growth inhibition at 200 mg/kg, po qd for 7 days measured on day 22; assay type: functional; settings: read-out: TGI
[23] = test system: Mus musculus; assay: Toxicity in athymic nu/nu Harlan mouse xenografted with human HCT116 cells assessed as mouse survival at 50 mg/kg, po QD for 7 days measured on day 22; assay type: organism-based, HCT-116; design: dose 50 mg/kg, route oral; settings: in vivo, 168 h
[24] = test system: Mus musculus; assay: Toxicity in athymic nu/nu Harlan mouse xenografted with human HCT116 cells assessed as mouse survival at 100 mg/kg, po QD for 7 days measured on day 22; assay type: organism-based, HCT-116; design: dose 100 mg/kg, route oral; settings: in vivo, 168 h
[25] = Half life in human liver microsomes; assay type: ADME, Microsome
[26] = Half life in mouse liver microsomes; assay type: ADME, Microsome; settings: liver microsomes
[27] = Half life in rat liver microsomes; assay type: ADME, Microsome
[28] = Half life in dog liver microsomes; assay type: ADME, Canis lupus familiaris, Microsome
[29] = Kinetic solubility of the compound at pH 7 with […] DMSO; assay type: physicochemical; settings: buffer, read-out: Kinetic_solubility
[30] = Apparent permeability from apical to basolateral side of human Caco2 cells; assay type: ADME, cell-based; settings: Caco-2
[31] = Apparent permeability from basolateral to apical side of human Caco2 cells; assay type: ADME, cell-based; settings: Caco-2
[32] = test system: Mus musculus; assay: Toxicity in athymic nu/nu Harlan mouse xenografted with human HCT116 cells assessed as body weight loss at 100 mg/kg, po QD for 7 days measured on day 5; assay type: organism-based, HCT-116; design: dose 100 mg/kg, route oral; settings: in vivo, 168 h
[33] = test system: Mus musculus; assay: Toxicity in athymic nu/nu Harlan mouse xenografted with human HCT116 cells assessed as body weight loss at 50 mg/kg, po QD for 21 days measured on day 5; settings: in vivo, 504 h
[34] = test system: Mus musculus; assay: Toxicity in athymic nu/nu Harlan mouse xenografted with human HCT116 cells assessed as body weight loss at 200 mg/kg, po QD for 7 days measured on day 5; settings: in vivo, 168 h
[35] = test system: HCT-116; assay: Antitumor activity against human HCT116 cells xenografted in athymic nu/nu Harlan mouse assessed as tumor growth inhibition at 100 mg/kg, po qd measured on day 22; settings: HCT-116, po, read-out: TGI
[36] = test system: HCT-116; assay: Antitumor activity against human HCT116 cells xenografted in athymic nu/nu Harlan mouse assessed as tumor growth inhibition at 50 mg/kg, po qd for 21 days measured on day 22; settings: HCT-116, po, read-out: TGI

Sequence of Histone deacetylase 4 (P56524 whole entry): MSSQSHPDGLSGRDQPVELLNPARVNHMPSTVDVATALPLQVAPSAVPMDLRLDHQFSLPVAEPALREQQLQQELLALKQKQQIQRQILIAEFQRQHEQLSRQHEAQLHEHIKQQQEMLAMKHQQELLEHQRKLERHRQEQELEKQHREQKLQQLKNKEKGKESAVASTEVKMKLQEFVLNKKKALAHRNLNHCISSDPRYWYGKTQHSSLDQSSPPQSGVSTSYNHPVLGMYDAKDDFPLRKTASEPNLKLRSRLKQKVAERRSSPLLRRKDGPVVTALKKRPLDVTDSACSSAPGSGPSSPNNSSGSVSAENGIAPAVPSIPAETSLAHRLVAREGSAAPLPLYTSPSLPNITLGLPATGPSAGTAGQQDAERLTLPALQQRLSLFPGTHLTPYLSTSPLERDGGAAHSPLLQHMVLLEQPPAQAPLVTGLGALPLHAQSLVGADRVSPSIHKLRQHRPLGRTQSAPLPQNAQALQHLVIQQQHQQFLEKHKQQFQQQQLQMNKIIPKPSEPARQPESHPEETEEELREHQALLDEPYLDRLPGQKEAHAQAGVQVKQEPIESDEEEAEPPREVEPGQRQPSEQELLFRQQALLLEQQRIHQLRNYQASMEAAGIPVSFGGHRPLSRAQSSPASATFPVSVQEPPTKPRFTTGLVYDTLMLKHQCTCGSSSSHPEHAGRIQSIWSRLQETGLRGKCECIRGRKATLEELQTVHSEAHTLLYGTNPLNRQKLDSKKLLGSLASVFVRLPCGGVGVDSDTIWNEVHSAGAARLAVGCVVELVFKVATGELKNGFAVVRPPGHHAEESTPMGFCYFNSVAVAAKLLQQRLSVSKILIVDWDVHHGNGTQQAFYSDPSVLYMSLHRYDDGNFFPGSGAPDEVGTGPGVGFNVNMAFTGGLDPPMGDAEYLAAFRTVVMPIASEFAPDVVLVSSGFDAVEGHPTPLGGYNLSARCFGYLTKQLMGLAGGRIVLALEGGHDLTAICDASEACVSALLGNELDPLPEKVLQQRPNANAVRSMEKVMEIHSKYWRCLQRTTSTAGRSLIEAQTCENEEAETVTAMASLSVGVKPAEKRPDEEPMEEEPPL

## O=C(/C=C/c1cccc(S(=O)(=O)Nc2ccccc2)c1)NO [BELINOSTAT]
[1]
  inhibition in vivo at 200 mg/kg: 42%
[2]
  IC50: 700 nM
[3]
  IC50: 670 nM
[4]
  IC50: 600 nM
[5]
  IC50: 450 nM
[6]
  Ki: 15 nM
[7]
  Ki: 10 nM
[8]
  Ki: 59 nM
[9]
  bioavailability: 6.7%
[10]
  Activity: 3.9%
[11]
  Activity: Non-toxic
[12]
  Activity: Non-toxic
[13]
  Activity: Non-toxic
[14]
  inhibition in vivo at 50 mg/kg: 6%
[15]
  inhibition in vivo at 100 mg/kg: 26%
[16]
  inhibition in vivo at 200 mg/kg: 29%
[17]
  inhibition in vivo at 40 mg/kg: 50%

## Cc1[nH]c2ccccc2c1CCNCc1ccc(/C=C/C(=O)NO)cc1 [PANOBINOSTAT]
[18]
  inhibition in vivo at 50 mg/kg: 61%
[19]
  inhibition in vivo at 50 mg/kg: 41%
[2]
  IC50: 18 nM
[3]
  IC50: 35 nM
[4]
  IC50: 48 nM
[5]
  IC50: 24 nM
[9]
  bioavailability: 4.6%
[20]
  Activity: 17.3%
[21]
  Activity: Non-toxic

## CCCCCCc1nc2cc(/C=C/C(=O)NO)ccc2n1CCN(C)C.Cl.Cl
[22]
  inhibition in vivo at 200 mg/kg: 53%
[23]
  Activity: Non-toxic
[24]
  Activity: Non-toxic
[25]
  half-life: > 60 min
[26]
  half-life: 16 min
[27]
  half-life: 10 min
[28]
  half-life: 10 min
[29]
  solubility kinetic: > 200 µM
[30]
  Papp A→B: 9.59 ×10⁻⁶ cm/s
[31]
  Papp B→A: 26 ×10⁻⁶ cm/s
[32]
  Activity: 4.9%
[33]
  Activity: 1.9%
[34]
  Activity: 18%
[35]
  inhibition in vivo at 100 mg/kg: 50%
[36]
  inhibition in vivo at 50 mg/kg: 17%
